Counter-ions that a name gives are not always drawn.
Legend:
human full-length MKNK1 [1] = biological target: T1, human full-length MKNK1 (Homo sapiens (Human), UniProt Q9BUB5, T344D); assay: MKNK1 kinase high ATP assay (TR-FRET-based); type: biochemical; settings: 2 mM ATP final conc.; 15 min preincubation with enzyme
Procedure: MKNK1 Kinase High ATP Assay
MKNK1-inhibitory activity at high ATP of compounds of the present invention after their preincubation with MKNK1 was quantified employing the TR-FRET-based MKNK1 high ATP assay as described in the following paragraphs.
As substrate for the kinase reaction the biotinylated peptide biotin-Ahx-[…] (C-terminus in amide form) was used, which can be purchased e.g. from the company Biosyntan (Berlin-Buch, Germany).
(§1) For the assay 50 nL of a 100 fold concentrated solution of the test compound in DMSO was pipetted into a black low volume 384 well microtiter plate (Greiner Bio-One, Frickenhausen, Germany), 2 μL of a solution of MKNK1 in aqueous assay buffer [50 mM HEPES pH 7.5, 5 mM magnesium chloride, 1.0 mM dithiothreitol, 0.005% (v/v) Nonidet-P40 (Sigma)] was added and the mixture was incubated for 15 min at 22° C. to allow pre-binding of the test compounds to the enzyme before the start of the kinase reaction. Then the kinase reaction was started by the addition of 3 μL of a solution of adenosine-tri-phosphate (ATP, 3.3 mM=>final conc. in the 5 μL assay volume is 2 mM) and substrate (0.1 μM=>final conc. in the 5 μL assay volume is 0.06 μM) in assay buffer and the resulting mixture was incubated for a reaction time of 30 min at 22° C. The concentration of MKNK1 was adjusted depending of the activity of the enzyme lot and was chosen appropriate to have the assay in the linear range, typical concentrations were in the range of 0.003 μg/mL. The reaction was stopped by the addition of 5 μL of a solution of TR-FRET detection reagents (5 nM streptavidine-XL665 [Cisbio Bioassays, Codolet, France] and 1 nM anti-ribosomal protein S6 (pSer236)-antibody from Invitrogen [#44921G] and 1 nM LANCE EU-W1024 labeled ProteinG [Perkin-Elmer, product no. AD0071]) in an aqueous EDTA-solution (100 mM EDTA, 0.1% (w/v) bovine serum albumin in 50 mM HEPES pH 7.5).
(§2) The resulting mixture was incubated for 1 h at 22° C. to allow the formation of complex between the phosphorylated biotinylated peptide and the detection reagents. Subsequently the amount of phosphorylated substrate was evaluated by measurement of the resonance energy transfer from the Eu-chelate to the streptavidine-XL. Therefore, the fluorescence emissions at 620 nm and 665 nm after excitation at 350 nm were measured in a TR-FRET reader, e.g. a Rubystar (BMG Labtechnologies, Offenburg, Germany) or a Viewlux (Perkin-Elmer). The ratio of the emissions at 665 nm and at […] was taken as the measure for the amount of phosphorylated substrate. The data were normalised (enzyme reaction without inhibitor=0% inhibition, all other assay components but no enzyme=100% inhibition).

human full-length MKNK1 [2] = biological target: T1, human full-length MKNK1; assay: MKNK1 kinase assay (MKNK1 TR-FRET assay); type: biochemical; settings: 10 μM ATP final conc.; 15 min preincubation with enzyme
Procedure: MKNK1-inhibitory activity of compounds of the present invention was quantified employing the MKNK1 TR-FRET assay as described in the following paragraphs.
As substrate for the kinase reaction the biotinylated peptide biotin-Ahx-[…] (C-terminus in amide form) was used which can be purchased e.g. form the company Biosyntan (Berlin-Buch, Germany).
as §1, with “16.7 μM=>final” for “3.3 mM=>final”, “10 μM)” for “2 mM)”, “45” for “30”, “0.05 μg/ml.” for “0.003 μg/mL.”
as §2

T1 sequence (Q9BUB5 other isoform, or with tags, fused parts or gaps T344D): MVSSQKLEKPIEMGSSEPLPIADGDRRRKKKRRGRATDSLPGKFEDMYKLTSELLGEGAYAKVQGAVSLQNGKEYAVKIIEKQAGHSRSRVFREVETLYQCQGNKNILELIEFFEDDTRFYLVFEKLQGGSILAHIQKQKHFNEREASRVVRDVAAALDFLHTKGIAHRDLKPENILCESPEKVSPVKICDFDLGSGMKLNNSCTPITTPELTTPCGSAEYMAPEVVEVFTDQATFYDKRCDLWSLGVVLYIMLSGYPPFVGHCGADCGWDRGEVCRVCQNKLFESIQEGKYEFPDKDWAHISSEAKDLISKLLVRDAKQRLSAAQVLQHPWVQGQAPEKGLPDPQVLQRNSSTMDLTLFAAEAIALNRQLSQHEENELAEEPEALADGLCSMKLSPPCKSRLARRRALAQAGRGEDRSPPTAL

SMILES | IC50 (human full-length MKNK1 [1]) | IC50 (human full-length MKNK1 [2])
NCCOc1ccc2ncc(-c3cc4ccccc4o3)n2n1 [Example 12, 2-{[3-(1-Benzofuran-2-yl)imidazo[1,2-b]pyridazin-6-yl]oxy}ethanamine] | 27 nM | 10 nM
CC(C)(N)CCOc1ccc2ncc(-c3cc4ccccc4o3)n2n1 [Example 14, 4-{[3-(1-Benzofuran-2-yl)imidazo[1,2-b]pyridazin-6-yl]oxy}-2-methylbutan-2-amine] | 39 nM | 20 nM
C[C@H](CN)Oc1ccc2ncc(-c3cc4cc(Cl)ccc4o3)n2n1 [Example 15, (2R)-2-{[3-(5-Chloro-1-benzofuran-2-yl)imidazo[1,2-b]pyridazin-6-yl]oxy}-propan-1-amine] | 197 nM | 36 nM
NC[C@H](Oc1ccc2ncc(-c3cc4ccccc4o3)n2n1)c1ccccc1 [Example 16, (2R)-2-{[3-(1-Benzofuran-2-yl)imidazo[1,2-b]pyridazin-6-yl]oxy}-2-phenylethanamine] | 49 nM | 26 nM
N[C@H](COc1ccc2ncc(-c3cc4ccccc4o3)n2n1)c1ccccc1 [Example 17, (1S)-2-{[3-(1-Benzofuran-2-yl)imidazo[1,2-b]pyridazin-6-yl]oxy}-1-phenylethanamine] | 10 nM | 6 nM
N[C@@H](COc1ccc2ncc(-c3cc4ccccc4o3)n2n1)c1ccccc1 [Example 18, (1R)-2-{[3-(1-Benzofuran-2-yl)imidazo[1,2-b]pyridazin-6-yl]oxy}-1-phenylethanamine] | 33 nM | 22 nM
N[C@H](COc1ccc2ncc(-c3cc4cc(Cl)ccc4o3)n2n1)c1ccccc1 [Example 19, (1S)-2-{[3-(5-Chloro-1-benzofuran-2-yl)imidazo[1,2-b]pyridazin-6-yl]oxy}-1-phenylethanamine] | 111 nM | 25 nM
NC[C@H]1C[C@H](Oc2ccc3ncc(-c4cc5ccccc5o4)n3n2)C1 [Example 20, 1-(trans-3-{[3-(1-Benzofuran-2-yl)imidazo[1,2-b]pyridazin-6-yl]oxy}cyclobutyl)-methanamine] | 6 nM | 4 nM
N[C@H]1C[C@H](COc2ccc3ncc(-c4cc5ccccc5o4)n3n2)C1 [Example 22, trans-3-({[3-(1-Benzofuran-2-yl)imidazo[1,2-b]pyridazin-6-yl]oxy}methyl)cyclobutanamine] | 17 nM | 6 nM
N[C@H]1CCC[C@@H]1Oc1ccc2ncc(-c3cc4ccccc4o3)n2n1 [Example 24, (1S,2S)-2-{[3-(1-Benzofuran-2-yl)imidazo[1,2-b]pyridazin-6-yl]oxy}cyclopentanamine] | 19 nM | 10 nM
N[C@H]1CCC[C@H]1Oc1ccc2ncc(-c3cc4ccccc4o3)n2n1 [Example 25, (1S,2R)-2-{[3-(1-Benzofuran-2-yl)imidazo[1,2-b]pyridazin-6-yl]oxy}cyclopentanamine salt with formic acid] | 22 nM | 7 nM
NCC(Cc1ccccc1)Oc1ccc2ncc(-c3cc4ccccc4o3)n2n1 (centres unmarked) [Example 26, 2-{[3-(1-Benzofuran-2-yl)imidazo[1,2-b]pyridazin-6-yl]oxy}-3-phenylpropan-1-amine salt with formic acid] | 25 nM | 15 nM
CC(C)(N)COc1ccc2ncc(-c3cc4ccccc4o3)n2n1 [Example 29, 1-{[3-(1-Benzofuran-2-yl)imidazo[1,2-b]pyridazin-6-yl]oxy}-2-methylpropan-2-amine] | 59 nM | 17 nM
NCC(Oc1ccc2ncc(-c3cc4ccccc4o3)n2n1)C1CC1 (centres unmarked) [Example 30, 2-{[3-(1-Benzofuran-2-yl)imidazo[1,2-b]pyridazin-6-yl]oxy}-2-cyclopropylethanamine] | 75 nM | 41 nM
NCC(CN)Oc1ccc2ncc(-c3cc4ccccc4o3)n2n1 [Example 34, 2-{[3-(1-Benzofuran-2-yl)imidazo[1,2-b]pyridazin-6-yl]oxy}propane-1,3-diamine] | 92 nM | 39 nM
NCC(Oc1ccc2ncc(-c3cc4ccccc4o3)n2n1)C1CCOC1 (centres unmarked) [Example 35, 2-{[3-(1-Benzofuran-2-yl)imidazo[1,2-b]pyridazin-6-yl]oxy}-2-(tetrahydrofuran-3-yl)ethanamine] | 52 nM | 32 nM
N[C@H]1C[C@H](Oc2ccc3ncc(-c4cc5c(F)cccc5o4)n3n2)C1 [Example 36, trans-3-{[3-(4-Fluoro-1-benzofuran-2-yl)imidazo[1,2-b]pyridazin-6-yl]oxy}-cyclobutanamine] | 2 nM | 1 nM
N[C@H]1C[C@H](Oc2ccc3ncc(-c4cc5cc(Cl)ccc5o4)n3n2)C1 [Example 37, trans-3-{[3-(5-Chloro-1-benzofuran-2-yl)imidazo[1,2-b]pyridazin-6-yl]oxy}-cyclobutanamine] | 5 nM | 4 nM
COc1ccc2oc(-c3cnc4ccc(O[C@H]5C[C@H](N)C5)nn34)cc2c1 [Example 38, trans-3-{[3-(5-Methoxy-1-benzofuran-2-yl)imidazo[1,2-b]pyridazin-6-yl]oxy}-cyclobutanamine] | 6 nM | 3 nM
N[C@H]1C[C@H](Oc2ccc3ncc(-c4cc5cc(F)ccc5o4)n3n2)C1 [Example 39, trans-3-{[3-(5-Fluoro-1-benzofuran-2-yl)imidazo[1,2-b]pyridazin-6-yl]oxy}-cyclobutanamine] | 6 nM | 3 nM
CC(CN)COc1ccc2ncc(-c3cc4ccccc4o3)n2n1 (centres unmarked) [Example 40, 3-{[3-(1-Benzofuran-2-yl)imidazo[1,2-b]pyridazin-6-yl]oxy}-2-methylpropan-1-amine] | 18 nM | 9 nM
COc1cccc2oc(-c3cnc4ccc(OCC(N)C5CC5)nn34)cc12 (centres unmarked) [Example 41, 1-Cyclopropyl-2-{[3-(4-methoxy-1-benzofuran-2-yl)imidazo[1,2-b]pyridazin-6-yl]oxy}ethanamine] | 27 nM | 12 nM
C[C@@H](N)COc1ccc2ncc(-c3cc4ccccc4o3)n2n1 [Example 42, (2R)-1-{[3-(1-Benzofuran-2-yl)imidazo[1,2-b]pyridazin-6-yl]oxy}propan-2-amine] | 43 nM | 15 nM
C[C@@H](N)COc1ccc2ncc(-c3cc4cc(Cl)ccc4o3)n2n1 [Example 43, (2R)-1-{[3-(5-Chloro-1-benzofuran-2-yl)imidazo[1,2-b]pyridazin-6-yl]oxy}-propan-2-amine] | 62 nM | 33 nM
NCC1(COc2ccc3ncc(-c4cc5ccccc5o4)n3n2)COC1 [Example 44, 1-[3-({[3-(1-Benzofuran-2-yl)imidazo[1,2-b]pyridazin-6-yl]oxy}methyl)oxetan-3-yl]methanamine] | 63 nM | 52 nM

— patent US9499547B2 (BAYER INTELLECTUAL PROPERTY GMBH, priority 2011, dated 2016)
